Data reported in publication PMC9409351, “Differential Ganglioside and Cholesterol Depletion by Various Cyclodextrin Derivatives and Their Effect on Synaptosomal Glutamate Release” (International Journal of Molecular Sciences, 2022).
pIC50: −log10 of the molar value.

Tests used:
[1] = system: cholesterol content of rat cerebral synaptosomes; assay: Cholesterol depletion from synaptosomes, Cholesterol Fluorometric Assay Kit; assay type: cell-based; settings: for pIC50: rat cerebral synaptosomes, 40 min exposure, 37 °C; for Cholesterol depletion in the tested concentration range: tested concentration range 0.3–100 mM
Experimental: Adult male Wistar rats purchased from Toxi-Coop Ltd. (Budapest, Hungary) were used in the experiments. Cerebral synaptosomes were prepared according to Modi and co-workers with the following modifications. Animals were decapitated and the brain was removed rapidly. Isotonic sucrose buffer (0.32 M sucrose, 4 mM HEPES-NaOH, pH 7.4) was used to homogenize the cerebrum with a Potter S Homogenizer (B. Braun, Melsungen, Germany) with 15 strokes at 1000 rpm. The homogenate was centrifuged (1500× g, 10 min, 4 °C) and the pellet was resuspended in sucrose buffer and centrifuged with the same parameters again. The two supernatants were combined and centrifuged (20,000× g, 10 min, 4 °C) to pellet the crude synaptosomes. The resulting supernatant was discarded and the pellet was washed again with an equal volume of sucrose buffer and then pelleted by centrifugation (20,000× g, 10 min, 4 °C). Synaptosomes were stored frozen using cryopreservation buffer and the slow freezing method to preserve their physiological state and integrity. Briefly, synaptosome pellets were resuspended in isotonic sucrose buffer containing 10% DMSO (v/v) and 10% FBS (v/v). To slow down the freezing process at −80 °C, synaptosomes were placed in a 3 cm thick-walled polystyrene box with a lid. Synaptosomes were stored at −80 °C until use. Immediately prior to the experiments, synaptosomes were rapidly thawed in a 37 °C water bath and pelleted by centrifugation (20,000× g, 10 min, 4 °C) to remove the cryopreservation buffer. The pellet was resuspended in isotonic HEPES-glucose buffer (10 mM HEPES-NaOH, 130 mM NaCl, 5.4 mM KCl, 1.3 mM CaCl2, 0.9 mM MgCl2, 5.5 mM glucose, pH 7.4) and aliquoted according to the experimental design.
For all types of experiments, except for the glutamate release measurements, vehicle-treated (control) and CD-treated synaptosomes were incubated in 500 μL HEPES-glucose buffer with or without CDs, respectively, for 40 min at 37 °C. […] After incubation, the synaptosomes were centrifuged (20,000× g, 5 min, 4 °C) and used immediately for further analysis. A slightly different incubation method used in the glutamate release measurements is described in the corresponding section. Across all types of experiments, osmolarities of the CD solutions were adjusted and they were between 290 and 310 mOsm. At least three parallel measurements were carried out.
The cholesterol levels of the rat cerebral synaptosomes were measured with a Cholesterol Fluorometric Assay Kit (Cayman Chemical Company, Ann Arbor, MI, USA) with minor adjustments for the sample preparation. Briefly, after CD treatments, 2 mg of the synaptosomes were extracted with 10 vol chloroform–methanol 2:1 (v/v) to gain a lipid extract. The samples were centrifuged (20,000× g, 5 min, 4 °C) and then the supernatant was evaporated to dryness under a nitrogen stream (Zymark TurboVap LV) in a 37 °C water bath. The extracts were resuspended and diluted in the assay buffer (1.2 mL/mg synaptosome). Further preparation of the assay was according to the manufacturer’s protocol. Fluorescence was measured with a Varioskan LUX multimode microplate reader (Thermo Fisher Scientific, Waltham, MA, USA) at 530/590 nm. Cholesterol depletion in the CD-treated synaptosomes was calculated as the percentage of the cholesterol content of the vehicle-treated synaptosomes.
Data were analyzed by GraphPad Prism 8 (GraphPad Software, La Jolla, CA, USA). Concentration–response curves were constructed by the nonlinear regression method. One-way ANOVA followed by Bonferroni’s post hoc test was used for the data analysis in the case of the glutamate release experiments. All data are presented as means ± SEM of at least three parallel measurements. Differences were considered significant if p < 0.05.

[2] = system: rat cerebral synaptosomes; assay: Resazurin reduction viability assay; assay type: cell-based; settings: for pIC50 / Concentration with significant decrease in viability / metabolic activity: 40 min exposure; for pIC50: percentage of vehicle-treated synaptosomes; for Concentration with significant decrease in viability / metabolic activity: resazurin reduction
Experimental: Adult male Wistar rats purchased from Toxi-Coop Ltd. (Budapest, Hungary) were used in the experiments. Cerebral synaptosomes were prepared according to Modi and co-workers with the following modifications. Animals were decapitated and the brain was removed rapidly. Isotonic sucrose buffer (0.32 M sucrose, 4 mM HEPES-NaOH, pH 7.4) was used to homogenize the cerebrum with a Potter S Homogenizer (B. Braun, Melsungen, Germany) with 15 strokes at 1000 rpm. The homogenate was centrifuged (1500× g, 10 min, 4 °C) and the pellet was resuspended in sucrose buffer and centrifuged with the same parameters again. The two supernatants were combined and centrifuged (20,000× g, 10 min, 4 °C) to pellet the crude synaptosomes. […] Synaptosomes were stored frozen using cryopreservation buffer and the slow freezing method to preserve their physiological state and integrity. Briefly, synaptosome pellets were resuspended in isotonic sucrose buffer containing 10% DMSO (v/v) and 10% FBS (v/v). To slow down the freezing process at −80 °C, synaptosomes were placed in a 3 cm thick-walled polystyrene box with a lid. Synaptosomes were stored at −80 °C until use. Immediately prior to the experiments, synaptosomes were rapidly thawed in a 37 °C water bath and pelleted by centrifugation (20,000× g, 10 min, 4 °C) to remove the cryopreservation buffer. […] For all types of experiments, except for the glutamate release measurements, vehicle-treated (control) and CD-treated synaptosomes were incubated in 500 μL HEPES-glucose buffer with or without CDs, respectively, for 40 min at 37 °C. […] After incubation, the synaptosomes were centrifuged (20,000× g, 5 min, 4 °C) and used immediately for further analysis. A slightly different incubation method used in the glutamate release measurements is described in the corresponding section. Across all types of experiments, osmolarities of the CD solutions were adjusted and they were between 290 and 310 mOsm. At least three parallel measurements were carried out. Viability of the rat cerebral synaptosomes was measured by the Resazurin Cell Viability Kit (Cell Signaling Technology Inc., Danvers, MA, USA) with minor modifications. The assay was based on the reduction in the nonfluorescent resazurin to highly fluorescent resorufin by intracellular dehydrogenase enzymes. Briefly, after CD treatments, 2 mg of the synaptosomes were centrifuged (20,000× g, 5 min, 4 °C) and the supernatant was discarded. […] After 25 min of incubation, synaptosomes were centrifuged (20,000× g, 5 min, 4 °C). Fluorescence of the supernatant was measured with a Varioskan LUX multimode microplate reader (Thermo Fisher Scientific) at 530/590 nm. Viability of the CD-treated synaptosomes was calculated as the percentage of vehicle-treated control synaptosomes.

Row | Compound | Cholesterol extraction at 10 mM ([1]; 10 mM) | Cholesterol extraction at 30 mM ([1]; 30 mM) | pIC50 [1] | Viability at 60 mM ([2]; 60 mM) | pIC50 [2] | Concentration with significant decrease in viability / metabolic activity [2] | pIC50 ([1]; 40 min) | pIC50 ([2]; Rattus norvegicus, 40 min) | Cholesterol depletion in the tested concentration range [1]
1 | COC[C@H]1O[C@@H]2O[C@H]3[C@H](O)[C@@H](OC)[C@@H](O[C@H]4[C@H](O)[C@@H](OC)[C@@H](O[C@H]5[C@H](O)[C@@H](OC)[C@@H](O[C@H]6[C@H](O)[C@@H](OC)[C@@H](O[C@H]7[C@H](O)[C@@H](OC)[C@@H](O[C@H]8[C@H](O)[C@@H](OC)[C@@H](O[C@H]1[C@H](O)[C@H]2OC)O[C@@H]8COC)O[C@@H]7COC)O[C@@H]6COC)O[C@@H]5COC)O[C@@H]4COC)O[C@@H]3COC [DIMEB, heptakis(2,6-di-O-methyl)-beta-cyclodextrin] | approximately 50% | Nearly total extraction | 2.13 | total loss of viability | 1.58 | higher than 10 mM |  |  | 
2 | CC(O)COC[C@H]1O[C@@H]2O[C@H]3[C@H](O)[C@@H](O)[C@@H](O[C@H]4[C@H](O)[C@@H](O)[C@@H](O[C@H]5[C@H](O)[C@@H](O)[C@@H](O[C@H]6[C@H](O)[C@@H](O)[C@@H](O[C@H]7[C@H](O)[C@@H](O)[C@@H](O[C@H]8[C@H](O)[C@@H](O)[C@@H](O[C@H]1[C@H](O)[C@H]2O)O[C@@H]8COCC(C)O)O[C@@H]7COCC(C)O)O[C@@H]6COCC(C)O)O[C@@H]5COCC(C)O)O[C@@H]4COCC(C)O)O[C@@H]3COCC(C)O (stereo partly drawn) [HPBCD, (2-hydroxypropyl)-beta-cyclodextrin] |  |  |  |  |  | 100000 µM | 1.47 | < 1.00 | 
3 | (2-hydroxypropyl)-alpha-cyclodextrin [HPACD] |  |  |  |  |  |  |  |  | without affecting the cholesterol content
4 | randomly methylated alpha-cyclodextrin [RAMEA] |  |  |  |  | ~1.05 | 100000 µM |  |  | without affecting the cholesterol content
